Like-named read-outs stand apart in the source and are kept apart here.

In the assay the target is T1, DβH (Homo sapiens, UniProt P09172).
T1 construct: reaction mixture (total volume 500 μl) contained: cellular homogenate (75 μg total protein); host or cells: SK-N-SH cell homogenate
T1 sequence (P09172 1-617): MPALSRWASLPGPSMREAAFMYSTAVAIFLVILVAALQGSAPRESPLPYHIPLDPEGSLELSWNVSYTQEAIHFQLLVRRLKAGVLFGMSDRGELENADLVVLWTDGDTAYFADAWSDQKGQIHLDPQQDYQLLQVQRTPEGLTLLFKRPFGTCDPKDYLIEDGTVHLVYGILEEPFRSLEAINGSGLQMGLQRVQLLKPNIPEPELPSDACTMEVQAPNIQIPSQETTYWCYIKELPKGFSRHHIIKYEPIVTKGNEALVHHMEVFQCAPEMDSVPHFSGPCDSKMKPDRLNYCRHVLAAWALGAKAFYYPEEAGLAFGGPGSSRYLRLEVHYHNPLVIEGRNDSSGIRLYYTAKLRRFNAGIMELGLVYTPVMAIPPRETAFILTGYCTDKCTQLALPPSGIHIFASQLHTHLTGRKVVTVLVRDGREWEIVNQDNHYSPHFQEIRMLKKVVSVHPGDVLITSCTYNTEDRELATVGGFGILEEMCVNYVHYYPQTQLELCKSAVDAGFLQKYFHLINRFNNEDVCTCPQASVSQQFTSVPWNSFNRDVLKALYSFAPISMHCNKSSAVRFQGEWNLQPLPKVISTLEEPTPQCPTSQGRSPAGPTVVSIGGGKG
The assay is described as follows: DβH inhibition cell assay (SK-N-SH cellular homogenates, tyramine to octopamine). Format: biochemical. The note with it: for remaining activity at 0.1 µM: inhibitor 0.1 μM, read-out: DβH activity in % of Ctrl (0.1 μM); for remaining activity at 1 µM: read-out: DβH activity in % of Ctrl (1 μM). Here is the method: The ability of a compound to inhibit DβH activity may be assessed using the following cell assay. […] . […] Fetal bovine serum was removed from cells for 4 h prior to collection.
For the preparation of cellular homogenates, media was removed and cell monolayers were washed with 50 mM Tris-HCl pH 7.4. Cells were subsequently scrapped off the flasks and were resuspended in 50 mM Tris pH 7.4. Cell suspensions were homogenized with SilentCrusher M (Heidolph) for a short stroke and resultant homogenates were aliquoted and stored frozen at −80° C.
Total protein was quantified in cellular homogenates with BioRad Protein Assay (BioRad) using a standard curve of BSA (50-250 μg/mL).
DβH activity was measured by a modification of the method of Nagatsu and Udenfriend (Nagatsu, T. and S. Udenfriend: “Photometric assay of dopamine-hydroxylase activity in human blood.” Clin. Chem. 18(9): 980-3, 1972) which is based on the enzymatic hydroxylation of tyramine into octopamine. The octopamine formed is subsequently oxidized to p-hydroxybenzaldehyde and measured by spectrophotometry. In brief, reaction mixture (total volume 500 μl) contained: cellular homogenate (75 μg total protein) sodium acetate pH 5.0 (200 mM), NEM (30 mM), CuSO4 (5 μM), catalase aqueous solution (0.5 mg/mL), pargyline-HCl (1 mM), sodium fumarate (10 mM), ascorbic acid (10 mM), inhibitor or vehicle and tyramine (25 mM). After a 10 min pre-incubation period at 37° C., the reaction was initiated by the addition of tyramine. Reaction was carried out for 45 min at 37° C. before termination with 50 μl PCA (2 M).
Samples were centrifuged for 3 min at 16100 g and supernatants were subjected to solid phase extraction. Solid phase extraction was performed using either SPE cartridges ISOLUTE SCX-3 (100 mg, 1 mL) or SPE 2 mL fixed 96 well plates ISOLUTE SCX-3 (100 mg) previously equilibrated with MilliQ water. Columns/plates were centrifuged at 150 g for 2 min. Eluate was discarded and matrix was washed with 1 mL of MilliQ water after which octopamine was eluted with 2×0.25 mL ammonium hydroxide (4 M). The oxidation of octopamine to p-hydroxybenzaldehyde was carried out for 6 min with 100 μl sodium periodate (2%) and was stopped with 100 μl sodium metabisulfite (10%). Absorbance was measured at 330 nm on a Spectramax microplate reader (Molecular Devices, Sunnyvale, Calif.). All enzymatic reactions were performed in duplicate. Results are reported in the table below as activity in % of control at the inhibitor concentration tested.

[1] abbreviates: inhibitor 1 μM, SK-N-SH cell homogenate.

In the case of `Fc1cccc(F)c1[C@]12C[C@H]1c1c[nH]c(=S)n1C2` [Example 64, (5aS,6aR)-5a-(2,6-difluorophenyl)-5,5a,6,6a-tetrahydrocyclopropa[3,4]pyrrolo[1,2-c]imidazole-3(2H)-thione], the remaining activity at 0.1 µM (SK-N-SH cell homogenate) turned out to be 39.9%. Further, the remaining activity at 1 µM under setting [1] is 7.2%. Regarding `Fc1cccc(F)c1[C@@]12C[C@@H]1c1c[nH]c(=S)n1C2` [Example 65, (5aR,6aS)-5a-(2,6-difluorophenyl)-5,5a,6,6a-tetrahydrocyclopropa[3,4]pyrrolo[1,2-c]imidazole-3(2H)-thione], the remaining activity at 1 µM under setting [1] is 17.9%. In the case of `Fc1cccc([C@]23C[C@H]2c2c[nH]c(=S)n2C3)c1F` [Example 66, (5aS,6aR)-5a-(2,3-difluorophenyl)-5,5a,6,6a-tetrahydrocyclopropa[3,4]pyrrolo[1,2-c]imidazole-3(2H)-thione], for the setting “SK-N-SH cell homogenate”, the remaining activity at 0.1 µM stood at 51.1%. Moreover, the remaining activity at 1 µM under setting [1] is 7.9%.

On to `Fc1cccc([C@@]23C[C@@H]2c2c[nH]c(=S)n2C3)c1F` [Example 67, (5aR,6aS)-5a-(2,3-difluorophenyl)-5,5a,6,6a-tetrahydrocyclopropa[3,4]pyrrolo[1,2-c]imidazole-3(2H)-thione], for which the remaining activity at 1 µM under setting [1] stood at 36.1%. On the same count and under the same terms, the same measure for `Fc1ccc(F)c([C@]23C[C@H]2c2c[nH]c(=S)n2C3)c1F` [Example 68, (5aS,6aR)-5a-(2,3,6-trifluorophenyl)-5,5a,6,6a-tetrahydrocyclopropa[3,4]pyrrolo[1,2-c]imidazole-3 (2H)-thione]: 5.1%; for `Fc1ccc(F)c([C@@]23C[C@@H]2c2c[nH]c(=S)n2C3)c1F` [Example 69, (5aR,6aS)-5a-(2,3,6-trifluorophenyl)-5,5a,6,6a-tetrahydrocyclopropa[3,4]pyrrolo[1,2-c]imidazole-3 (2H)-thione]: 14.6%. On to `Fc1ccc([C@]23C[C@H]2c2c[nH]c(=S)n2C3)c(F)c1` [Example 70, (5aS,6aR)-5a-(2,4-difluorophenyl)-5,5a,6,6a-tetrahydrocyclopropa[3,4]pyrrolo[1,2-c]imidazole-3(2H)-thione], for which the remaining activity at 1 µM under setting [1] stood at 35.7%. As for `Fc1ccc([C@]23C[C@H]2c2c[nH]c(=S)n2C3)cc1F` [Example 71, (5aS,6aR)-5a-(3,4-difluorophenyl)-5,5a,6,6a-tetrahydrocyclopropa[3,4]pyrrolo[1,2-c]imidazole-3(2H)-thione], the remaining activity at 1 µM under setting [1] is 48.5%. Still for that read-out and setting: the same measure for `Fc1cc(F)c([C@]23C[C@H]2c2c[nH]c(=S)n2C3)cc1F` [Example 72, (5aS,6aR)-5a-(2,4,5-trifluorophenyl)-5,5a,6,6a-tetrahydrocyclopropa[3,4]pyrrolo[1,2-c]imidazole-3 (2H)-thione]: 35%. Turning to `Fc1cc(Cl)cc([C@]23C[C@H]2c2c[nH]c(=S)n2C3)c1` [Example 73, (5aS,6aR)-5a-(3-chloro-5-fluorophenyl)-5,5a,6,6a-tetrahydrocyclopropa[3,4]pyrrolo[1,2-c]imidazole-3 (2H)-thione], the remaining activity at 0.1 µM (SK-N-SH cell homogenate) came to 41.7%. The remaining activity at 1 µM under setting [1] turned out to be 5.1%. On to `Fc1ccc(Cl)cc1[C@]12C[C@H]1c1c[nH]c(=S)n1C2` [Example 74, (5aS,6aR)-5a-(5-chloro-2-fluorophenyl)-5,5a,6,6a-tetrahydrocyclopropa[3,4]pyrrolo[1,2-c]imidazole-3 (2H)-thione], for which the remaining activity at 0.1 µM (SK-N-SH cell homogenate) is 21.9%. Besides, the remaining activity at 1 µM under setting [1] amounted to 1.8%. Turning to `Fc1ccc(Cl)c([C@]23C[C@H]2c2c[nH]c(=S)n2C3)c1` [Example 75, (5aS,6aR)-5a-(2-chloro-5-fluorophenyl)-5,5a,6,6a-tetrahydrocyclopropa[3,4]pyrrolo[1,2-c]imidazole-3 (2H)-thione], under setting [1], the remaining activity at 1 µM amounted to 18.1%. Turning to `Cn1cc2n(c1=S)C[C@@]1(c3cc(F)cc(F)c3)C[C@@H]21` [Example 76, (5aS,6aR)-5a-(3,5-difluorophenyl)-2-methyl-5,5a,6,6a-tetrahydrocyclopropa[3,4]pyrrolo[1,2-c]imidazole-3 (2H)-thione], the remaining activity at 1 µM under setting [1] was 17.4%. Same read-out and setting: the same measure for `Fc1cc(F)cc([C@]23C[C@H]2c2cn(C4CC4)c(=S)n2C3)c1` [Example 77, (5aS,6aR)-2-cyclopropyl-5 a-(3,5-difluorophenyl)-5,5a,6,6a-tetrahydrocyclopropa[3,4]pyrrolo[1,2-c]imidazole-3 (2H)-thione]: 23%; for `Cc1[nH]c(=S)n2c1[C@@H]1C[C@]1(c1cc(F)ccc1F)C2` [Example 78, (5aS,6aR)-5a-(2,5-difluorophenyl)-1-methyl-5,5a,6,6a-tetrahydrocyclopropa[3,4]pyrrolo[1,2-c]imidazole-3 (2H)-thione]: 10.9%; for `Cc1[nH]c(=S)n2c1[C@@H]1C[C@]1(c1cc(F)cc(F)c1)C2` [Example 79, (5aS,6aR)-5a-(3,5-difluorophenyl)-1-methyl-5,5a,6,6a-tetrahydrocyclopropa[3,4]pyrrolo[1,2-c]imidazole-3 (2H)-thione]: 13%. As to `CCCCc1[nH]c(=S)n2c1C[C@@H](c1cc(F)cc(F)c1)C2` [Example 80, (S)-1-butyl-6-(3,5-difluorophenyl)-6,7-dihydro-2H-pyrrolo[1,2-c]imidazole-3(5H)-thione], the remaining activity at 1 µM came to 56.7%. As for `S=c1[nH]cc2n1CC(C1CCCCC1)C2` (stereo not shown) [Example 81, 6-cyclohexyl-6,7-dihydro-2H-pyrrolo[1,2-c]imidazole-3(5H)-thione], the remaining activity at 1 µM under setting [1] was 59.4%. Consider `Fc1cc(F)c(F)c([C@@H]2Cc3c[nH]c(=S)n3C2)c1` [Example 82, (S)-6-(2,3,5-trifluorophenyl)-2,5,6,7-tetrahydro-3H-pyrrolo[1,2-c]imidazole-3-thione], for which the remaining activity at 0.1 µM (SK-N-SH cell homogenate) worked out at 90%. In addition, under setting [1], the remaining activity at 1 µM amounted to 20%. In the case of `Fc1cc(F)c(F)c([C@H]2Cc3c[nH]c(=S)n3C2)c1` [Example 83, (R)-6-(2,3,5-trifluorophenyl)-2,5,6,7-tetrahydro-3H-pyrrolo[1,2-c]imidazole-3-thione], the remaining activity at 0.1 µM (SK-N-SH cell homogenate) is 84%. In addition, under setting [1], the remaining activity at 1 µM worked out at 33.1%.

Turning to `Fc1cccc(F)c1[C@@H]1Cc2c[nH]c(=S)n2C1` [Example 84, (S)-6-(2,6-difluorophenyl)-2,5,6,7-tetrahydro-3H-pyrrolo[1,2-c]imidazole-3-thione], the remaining activity at 0.1 µM (SK-N-SH cell homogenate) is 96.9%. In addition, the remaining activity at 1 µM under setting [1] is 41.9%. The like results for `Fc1ccc(Cl)c(F)c1[C@@H]1Cc2c[nH]c(=S)n2C1` [Example 85, (S)-6-(3-chloro-2,6-difluorophenyl)-2,5,6,7-tetrahydro-3H-pyrrolo[1,2-c]imidazole-3-thione] were, in that order, 0% and 0%.

Take `Fc1ccc(Cl)c(F)c1[C@H]1Cc2c[nH]c(=S)n2C1` [Example 86, (R)-6-(3-chloro-2,6-difluorophenyl)-2,5,6,7-tetrahydro-3H-pyrrolo[1,2-c]imidazole-3-thione]: the remaining activity at 0.1 µM (SK-N-SH cell homogenate) is 25.3%. For the same compound, under setting [1], the remaining activity at 1 µM is 0%. On to `Fc1cccc(F)c1[C@H]1Cc2c[nH]c(=S)n2C1` [Example 87, (R)-6-(2,6-difluorophenyl)-2,5,6,7-tetrahydro-3H-pyrrolo[1,2-c]imidazole-3-thione], for which the remaining activity at 0.1 µM (SK-N-SH cell homogenate) came out at 36.5%. Besides, the remaining activity at 1 µM under setting [1] turned out to be 0%.

These data come from patent publication US10975083B2, “Blood-brain barrier-penetrant dopamine-β-hydroxylase inhibitors” (BIAL—PORTELA & Cᵃ, S.A., priority 2016, dated 2021).
